Experimental data from paper PMC10023787, “Trio-pharmacophore DNA-encoded chemical library for simultaneous selection of fragments and linkers” (Nature Communications, 2023).

Molecular target: T1, bovine carbonic anhydrase II (CAII) (Bos taurus, UniProt P00921)
T1 construct: purchased Sigma-Aldrich C7749
Experiment: Carbonic anhydrase II inhibition assay (esterase activity on p-nitrophenyl acetate)
Assay type: biochemical
Conditions: for remaining activity at 0.0001024 µM: 0.1024 nM compound; for remaining activity at 0.0001024 µM / remaining activity at 0.000512 µM / remaining activity at 0.00256 µM / remaining activity at 0.064 µM / remaining activity at 0.32 µM / remaining activity at 1.6 µM / remaining activity at 8 µM / remaining activity at 40 µM / remaining activity at 200 µM: source data of Fig. 2c, read-out: Normalized CA II Activity (Mean); for remaining activity at 0.000512 µM: 0.512 nM compound; for remaining activity at 0.00256 µM: 2.56 nM compound; for remaining activity at 0.064 µM: 64 nM compound; for remaining activity at 0.32 µM: 320 nM compound; for remaining activity at 1.6 µM: 1600 nM compound; for remaining activity at 8 µM: 8000 nM compound; for remaining activity at 40 µM: 40000 nM compound; for remaining activity at 200 µM: 200000 nM compound
Experimental: CAII inhibition assay was performed to measure the inhibitory effect of re-synthesized CBS-conjugates. The esterase activity of CAII with a chromogenic substrate p-nitrophenyl acetate (pNPA) was measured. The rates of hydrolysis were determined by an increase of absorption at 410 nm after incubating different compounds with CAII. Re-synthesized compounds were diluted in a serial spanning mM to μM concentrations. […] 5 µl of pNPA (50 mM in 20% DMSO) was added to the plate right before the measurement. The absorption was measured at 37 °C each 10 sec for 15 min using a Beckman Coulter’s Paradigm Detection Platform (Brea, USA). The initial Vmax was obtained from the increase of absorption and the Vmax was plotted against the inhibitor concentrations and logistic fitting was performed to obtain IC50 values using Origin 2019b (OriginLab) software.

T1 sequence (P00921 whole entry): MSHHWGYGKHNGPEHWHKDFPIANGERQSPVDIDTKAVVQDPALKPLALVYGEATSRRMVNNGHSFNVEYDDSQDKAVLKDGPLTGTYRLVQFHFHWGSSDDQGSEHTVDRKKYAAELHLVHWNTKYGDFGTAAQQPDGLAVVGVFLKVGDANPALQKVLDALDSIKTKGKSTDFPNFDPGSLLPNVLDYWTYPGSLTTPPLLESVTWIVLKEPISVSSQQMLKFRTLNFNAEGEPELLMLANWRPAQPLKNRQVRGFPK

| SMILES | remaining activity at 0.0001024 µM [%] | remaining activity at 0.000512 µM [%] | remaining activity at 0.00256 µM [%] | remaining activity at 0.064 µM [%] | remaining activity at 0.32 µM [%] | remaining activity at 1.6 µM [%] | remaining activity at 8 µM [%] | remaining activity at 40 µM [%] | remaining activity at 200 µM [%] | IC50 (mean ± SE, three independent measurements, n.d: not detected) [µM] |
| --- | --- | --- | --- | --- | --- | --- | --- | --- | --- | --- |
| NS(=O)(=O)c1ccc(NC(=O)c2ccc(-n3cc(CCC(=O)NCCNC(=O)/C=C/c4ccc(-c5ccccc5C(F)(F)F)o4)nn3)cc2)cc1 [Compound C-4] | 96.8 | 89 | 89.3 | 89.8 | 90.3 | 65 | 42.3 | 33.8 | 9.19 |  |
| NS(=O)(=O)c1ccc(NC(=O)COCC(=O)NCCNC(=O)/C=C/c2ccc(-c3ccccc3C(F)(F)F)o2)cc1 [Compound C-5] | 101 | 100 | 96.7 | 90.2 | 78.3 | 56.6 | 33.3 | 19.1 | 11.8 | 2.02 ± 0.31 |
